Data reported in ChEMBL document CHEMBL1144565, “Anti-breast cancer activity of LFM-A13, a potent inhibitor of Polo-like kinase (PLK)” (Bioorg Med Chem, 2007).
Activity calls are given as the source filed them. The rule behind the calls is not given here.

Key:
Mus musculus [1] = experiment: Acute toxicity in CD1 mouse assessed as absolute lymphocyte counts at 80 mg/kg, ip after 7 days; assay type: organism-based; parameters: dose 80 mg/kg, route intraperitoneal; settings: in vivo, 168 h
Mus musculus [2] = experiment: Acute toxicity in CD1 mouse assessed as myeloid or lymphoid hyperplasia in bone marrow at 80 mg/kg, ip after 7 days; assay type: organism-based; parameters: dose 80 mg/kg, route intraperitoneal; settings: in vivo, 168 h
Mus musculus [3] = experiment: Toxicity in ip dosed CD1 mouse; assay type: organism-based; settings: in vivo
Mus musculus [4] = experiment: Anti-breast cancer activity in ip dosed MMTV/Neu transgenic mouse assessed as tumor progression delay; assay type: functional, organism-based
[5] = target: Mitogen-activated protein kinase 14 (Homo sapiens, UniProt Q16539); experiment: Inhibition of SAPK2a
Sequence of Mitogen-activated protein kinase 14 (Q16539 whole entry): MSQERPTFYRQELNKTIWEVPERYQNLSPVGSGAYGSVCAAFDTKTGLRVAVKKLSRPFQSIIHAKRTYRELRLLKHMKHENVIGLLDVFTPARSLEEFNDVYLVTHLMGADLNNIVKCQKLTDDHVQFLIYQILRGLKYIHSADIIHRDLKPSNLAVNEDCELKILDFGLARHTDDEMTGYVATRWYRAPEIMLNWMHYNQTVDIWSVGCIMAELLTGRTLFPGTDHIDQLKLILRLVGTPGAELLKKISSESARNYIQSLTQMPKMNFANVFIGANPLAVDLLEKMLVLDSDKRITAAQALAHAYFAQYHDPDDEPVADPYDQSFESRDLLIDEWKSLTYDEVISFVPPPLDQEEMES

[6] = target: Tyrosine-protein kinase JAK2 (Homo sapiens, UniProt O60674); experiment: Inhibition of JAK2
Sequence of Tyrosine-protein kinase JAK2 (O60674 whole entry): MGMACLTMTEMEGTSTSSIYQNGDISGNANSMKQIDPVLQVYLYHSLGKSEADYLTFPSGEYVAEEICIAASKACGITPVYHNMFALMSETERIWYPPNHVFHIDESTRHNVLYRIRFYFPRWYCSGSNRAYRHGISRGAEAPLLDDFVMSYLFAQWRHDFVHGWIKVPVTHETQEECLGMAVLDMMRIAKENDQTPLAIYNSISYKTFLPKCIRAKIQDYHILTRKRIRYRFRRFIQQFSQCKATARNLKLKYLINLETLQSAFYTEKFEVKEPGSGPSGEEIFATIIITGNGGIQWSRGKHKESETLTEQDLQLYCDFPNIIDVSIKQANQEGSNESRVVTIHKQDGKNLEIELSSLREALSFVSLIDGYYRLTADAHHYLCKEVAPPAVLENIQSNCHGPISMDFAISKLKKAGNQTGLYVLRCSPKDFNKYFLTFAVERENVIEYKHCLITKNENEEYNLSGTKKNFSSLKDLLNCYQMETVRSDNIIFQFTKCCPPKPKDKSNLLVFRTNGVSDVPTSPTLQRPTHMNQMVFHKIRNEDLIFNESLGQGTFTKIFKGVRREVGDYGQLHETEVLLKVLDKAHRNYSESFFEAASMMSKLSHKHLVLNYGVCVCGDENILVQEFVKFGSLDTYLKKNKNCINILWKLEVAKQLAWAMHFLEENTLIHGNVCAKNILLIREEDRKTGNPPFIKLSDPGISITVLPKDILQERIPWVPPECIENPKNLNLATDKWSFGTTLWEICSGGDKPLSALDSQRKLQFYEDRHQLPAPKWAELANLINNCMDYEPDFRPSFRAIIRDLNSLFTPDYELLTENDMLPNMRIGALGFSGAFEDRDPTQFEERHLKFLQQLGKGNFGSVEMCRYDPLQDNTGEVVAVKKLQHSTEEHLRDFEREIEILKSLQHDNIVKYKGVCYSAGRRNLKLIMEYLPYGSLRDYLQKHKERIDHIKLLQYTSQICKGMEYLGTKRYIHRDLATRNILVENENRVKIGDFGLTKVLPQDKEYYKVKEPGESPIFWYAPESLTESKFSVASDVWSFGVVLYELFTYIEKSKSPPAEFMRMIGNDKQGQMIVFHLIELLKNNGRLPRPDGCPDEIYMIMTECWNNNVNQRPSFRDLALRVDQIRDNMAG

Mus musculus [7] = experiment: Effect on non-proliferating tissue in ip dosed CD1 mouse assessed as toxic lesions in brain; assay type: ADME, organism-based; settings: in vivo
[8] = target: Tyrosine-protein kinase Yes (Homo sapiens, UniProt P07947); experiment: Inhibition of YES kinase
Sequence of Tyrosine-protein kinase Yes (P07947 whole entry): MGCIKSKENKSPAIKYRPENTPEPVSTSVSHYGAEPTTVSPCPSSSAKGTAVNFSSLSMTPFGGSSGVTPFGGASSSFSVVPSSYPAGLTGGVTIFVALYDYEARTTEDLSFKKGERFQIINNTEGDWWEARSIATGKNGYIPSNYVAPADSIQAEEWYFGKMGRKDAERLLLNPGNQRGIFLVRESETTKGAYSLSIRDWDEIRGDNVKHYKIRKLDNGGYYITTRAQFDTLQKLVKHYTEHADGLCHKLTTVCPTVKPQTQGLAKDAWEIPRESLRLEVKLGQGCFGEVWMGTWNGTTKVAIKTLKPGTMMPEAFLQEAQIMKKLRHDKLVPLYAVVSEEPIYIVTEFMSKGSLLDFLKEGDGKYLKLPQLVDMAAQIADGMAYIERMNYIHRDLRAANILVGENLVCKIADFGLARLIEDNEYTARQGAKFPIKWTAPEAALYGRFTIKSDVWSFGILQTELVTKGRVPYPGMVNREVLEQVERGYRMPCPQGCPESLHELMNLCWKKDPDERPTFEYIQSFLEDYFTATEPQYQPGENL

Mus musculus [9] = experiment: Subacute toxicity in CD1 mouse assessed as absolute lymphocyte counts at 10 mg/kg, ip after 30 days; assay type: organism-based; parameters: dose 10 mg/kg, route intraperitoneal; settings: in vivo, 720 h
Danio rerio = species on record: Danio rerio; experiment: Effect on cell division blockade in zebrafish egg assessed as cell fusion and lysis at 500 uM after 60 mins; assay type: functional, organism-based
Mus musculus [10] = experiment: Subacute toxicity in CD1 mouse assessed as WBC counts at 40 mg/kg, ip after 30 days; assay type: organism-based; parameters: dose 40 mg/kg, route intraperitoneal; settings: in vivo, 720 h
Mus musculus [11] = experiment: Acute toxicity in CD1 mouse assessed as myeloid or lymphoid hyperplasia in bone marrow at 40 mg/kg, ip after 7 days; assay type: organism-based; parameters: dose 40 mg/kg, route intraperitoneal; settings: in vivo, 168 h
Mus musculus [12] = experiment: Acute toxicity in CD1 mouse assessed as WBC counts at 20 mg/kg, ip after 7 days; assay type: organism-based; parameters: dose 20 mg/kg, route intraperitoneal; settings: in vivo, 168 h
Mus musculus [13] = experiment: Effect on non-proliferating tissue in po dosed BALB/c mouse assessed as toxic lesions in lung; assay type: ADME, organism-based; settings: in vivo
Mus musculus [14] = experiment: Subacute toxicity in CD1 mouse assessed as WBC counts at 20 mg/kg, ip after 30 days; assay type: organism-based; parameters: dose 20 mg/kg, route intraperitoneal; settings: in vivo, 720 h
Mus musculus [15] = experiment: Subacute toxicity in CD1 mouse assessed as WBC counts at 10 mg/kg, ip after 30 days; assay type: organism-based; parameters: dose 10 mg/kg, route intraperitoneal; settings: in vivo, 720 h
Mus musculus [16] = experiment: Subacute toxicity in CD1 mouse assessed as myeloid or lymphoid hyperplasia in bone marrow at 10 mg/kg, ip after 30 days; assay type: organism-based; parameters: dose 10 mg/kg, route intraperitoneal; settings: in vivo, 720 h
Mus musculus [17] = experiment: Effect on non-proliferating tissue in ip dosed CD1 mouse assessed as toxic lesions in myocardium; assay type: ADME, organism-based; settings: in vivo
Mus musculus [18] = experiment: Acute toxicity in CD1 mouse assessed as absolute neutrophil counts at 80 mg/kg, ip after 7 days; assay type: organism-based; parameters: dose 80 mg/kg, route intraperitoneal; settings: in vivo, 168 h
[19] = target: T1, Serine/threonine-protein kinase PLK3 (Homo sapiens, UniProt Q9H4B4); experiment: Inhibition of human PLK3
T1 sequence (Q9H4B4 whole entry): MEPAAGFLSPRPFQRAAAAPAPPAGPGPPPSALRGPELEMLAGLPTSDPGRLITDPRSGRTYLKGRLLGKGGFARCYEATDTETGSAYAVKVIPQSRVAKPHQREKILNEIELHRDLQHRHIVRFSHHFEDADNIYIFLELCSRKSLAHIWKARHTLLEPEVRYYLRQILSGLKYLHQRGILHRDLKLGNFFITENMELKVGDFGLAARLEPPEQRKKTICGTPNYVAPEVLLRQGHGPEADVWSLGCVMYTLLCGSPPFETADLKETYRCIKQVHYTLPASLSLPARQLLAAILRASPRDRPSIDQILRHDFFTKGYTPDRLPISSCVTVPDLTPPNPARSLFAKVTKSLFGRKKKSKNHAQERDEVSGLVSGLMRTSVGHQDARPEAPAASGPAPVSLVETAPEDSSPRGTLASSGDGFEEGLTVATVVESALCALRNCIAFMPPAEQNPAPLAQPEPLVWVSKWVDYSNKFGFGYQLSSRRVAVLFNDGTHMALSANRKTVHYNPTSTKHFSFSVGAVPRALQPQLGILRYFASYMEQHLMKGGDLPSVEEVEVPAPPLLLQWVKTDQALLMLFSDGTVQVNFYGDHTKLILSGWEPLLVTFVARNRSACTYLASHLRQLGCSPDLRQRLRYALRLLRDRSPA

[20] = target: T1, Serine/threonine-protein kinase PLK3; experiment: Inhibition of human PLK3 in presence of 200 uM ATP
[21] = target: T2, Serine/threonine-protein kinase PLK1 (Xenopus laevis, UniProt P70032); experiment: Inhibition of xenopus recombinant Plx1 expressed in Sf21 cells by measuring autophosphorylation by 15-mins kinase assay; assay type: functional
T2 sequence (P70032 whole entry): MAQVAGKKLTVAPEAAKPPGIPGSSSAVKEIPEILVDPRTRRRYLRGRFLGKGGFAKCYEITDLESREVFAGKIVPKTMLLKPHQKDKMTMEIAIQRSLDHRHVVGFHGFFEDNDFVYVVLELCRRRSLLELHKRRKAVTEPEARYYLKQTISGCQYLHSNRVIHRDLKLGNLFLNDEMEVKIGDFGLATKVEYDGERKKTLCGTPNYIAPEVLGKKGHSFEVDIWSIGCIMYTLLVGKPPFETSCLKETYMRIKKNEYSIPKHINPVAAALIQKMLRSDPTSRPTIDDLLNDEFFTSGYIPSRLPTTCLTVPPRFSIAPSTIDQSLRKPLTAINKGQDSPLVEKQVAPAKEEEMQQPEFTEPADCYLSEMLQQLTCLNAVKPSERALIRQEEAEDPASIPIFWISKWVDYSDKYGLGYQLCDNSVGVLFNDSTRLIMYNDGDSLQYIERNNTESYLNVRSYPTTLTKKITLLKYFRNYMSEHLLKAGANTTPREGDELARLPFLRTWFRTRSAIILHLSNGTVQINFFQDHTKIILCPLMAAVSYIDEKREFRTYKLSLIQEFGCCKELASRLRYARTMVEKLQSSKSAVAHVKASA

Mus musculus [22] = experiment: Subacute toxicity in CD1 mouse assessed as absolute neutrophil counts at 10 mg/kg, ip after 30 days; assay type: organism-based; parameters: dose 10 mg/kg, route intraperitoneal; settings: in vivo, 720 h
PTK1 [23] = experiment: Antiproliferative activity against anaphase PTK1 cells assessed as delay in mitosis completion; assay type: functional, cell-based; settings: Potorous tridactylus
[24] = target: Cyclin-dependent kinase 2 (Homo sapiens, UniProt P24941); experiment: Inhibition of CDK2
Mus musculus [25] = experiment: Acute toxicity in CD1 mouse assessed as absolute lymphocyte counts at 40 mg/kg, ip after 7 days; assay type: organism-based; parameters: dose 40 mg/kg, route intraperitoneal; settings: in vivo, 168 h
[26] = target: Hepatocyte growth factor receptor (Homo sapiens, UniProt P08581); experiment: Inhibition of Met kinase
Sequence of Hepatocyte growth factor receptor (P08581 whole entry): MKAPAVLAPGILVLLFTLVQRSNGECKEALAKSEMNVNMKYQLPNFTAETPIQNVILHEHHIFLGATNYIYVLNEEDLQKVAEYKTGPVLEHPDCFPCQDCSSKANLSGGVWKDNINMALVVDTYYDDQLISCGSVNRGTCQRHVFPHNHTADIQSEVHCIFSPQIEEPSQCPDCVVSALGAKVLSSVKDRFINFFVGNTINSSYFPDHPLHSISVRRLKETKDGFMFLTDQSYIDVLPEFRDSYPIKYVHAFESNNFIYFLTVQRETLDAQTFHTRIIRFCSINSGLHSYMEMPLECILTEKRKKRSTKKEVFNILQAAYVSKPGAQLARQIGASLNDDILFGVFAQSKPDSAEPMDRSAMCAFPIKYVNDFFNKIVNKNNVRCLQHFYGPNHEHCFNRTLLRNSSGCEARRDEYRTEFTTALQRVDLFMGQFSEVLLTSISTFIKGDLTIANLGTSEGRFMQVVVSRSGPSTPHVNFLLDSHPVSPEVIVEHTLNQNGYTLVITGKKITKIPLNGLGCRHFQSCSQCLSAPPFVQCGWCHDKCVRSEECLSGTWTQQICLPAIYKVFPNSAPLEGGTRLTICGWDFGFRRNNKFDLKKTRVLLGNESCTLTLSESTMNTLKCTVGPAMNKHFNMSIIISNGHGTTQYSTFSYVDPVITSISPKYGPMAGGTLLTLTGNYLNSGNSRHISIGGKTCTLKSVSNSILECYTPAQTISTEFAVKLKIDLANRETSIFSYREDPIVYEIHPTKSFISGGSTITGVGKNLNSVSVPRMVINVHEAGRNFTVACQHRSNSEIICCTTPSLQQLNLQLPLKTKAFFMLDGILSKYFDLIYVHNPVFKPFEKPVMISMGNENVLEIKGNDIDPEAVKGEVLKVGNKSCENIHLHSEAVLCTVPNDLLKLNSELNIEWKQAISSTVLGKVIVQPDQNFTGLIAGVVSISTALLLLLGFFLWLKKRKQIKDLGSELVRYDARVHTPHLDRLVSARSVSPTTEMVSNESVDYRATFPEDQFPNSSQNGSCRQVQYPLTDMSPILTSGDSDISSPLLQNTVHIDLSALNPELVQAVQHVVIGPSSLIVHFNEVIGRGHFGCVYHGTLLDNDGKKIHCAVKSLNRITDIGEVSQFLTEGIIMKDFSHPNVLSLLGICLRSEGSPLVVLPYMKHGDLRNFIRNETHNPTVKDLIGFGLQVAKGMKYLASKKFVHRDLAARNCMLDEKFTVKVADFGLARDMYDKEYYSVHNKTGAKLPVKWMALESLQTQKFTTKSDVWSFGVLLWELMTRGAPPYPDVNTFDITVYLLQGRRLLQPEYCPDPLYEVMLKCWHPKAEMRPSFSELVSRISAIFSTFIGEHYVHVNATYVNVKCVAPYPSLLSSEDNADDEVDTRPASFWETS

Mus musculus [27] = experiment: Acute toxicity in CD1 mouse assessed as WBC counts at 10 mg/kg, ip after 7 days; assay type: organism-based; parameters: dose 10 mg/kg, route intraperitoneal; settings: in vivo, 168 h
Mus musculus [28] = experiment: Acute toxicity in CD1 mouse assessed as myeloid or lymphoid hyperplasia in bone marrow at 10 mg/kg, ip after 7 days; assay type: organism-based; parameters: dose 10 mg/kg, route intraperitoneal; settings: in vivo, 168 h
Rattus norvegicus [29] = experiment: Toxicity in Lewis rat assessed as myeloid or lymphoid hyperplasia in bone marrow at 40 mg/kg, iV after 7 days; assay type: organism-based; parameters: dose 40 mg/kg, route intravenous; settings: in vivo, 168 h
Rattus norvegicus [30] = experiment: Toxicity in Lewis rat assessed as absolute neutrophil counts at 40 mg/kg, iv after 7 days; assay type: organism-based; parameters: dose 40 mg/kg, route intravenous; settings: in vivo, 168 h
Mus musculus [31] = experiment: Subacute toxicity in CD1 mouse assessed as absolute lymphocyte counts at 40 mg/kg, ip after 30 days; assay type: organism-based; parameters: dose 40 mg/kg, route intraperitoneal; settings: in vivo, 720 h
Rattus norvegicus [32] = experiment: Toxicity in Lewis rat assessed as myeloid or lymphoid hyperplasia in bone marrow at 20 mg/kg, iV after 7 days; assay type: organism-based; parameters: dose 20 mg/kg, route intravenous; settings: in vivo, 168 h
Rattus norvegicus [33] = experiment: Effect on non-proliferating tissue in iv dosed Lewis rat assessed as toxic lesions in myocardium on day 7; assay type: ADME, organism-based; settings: in vivo
Rattus norvegicus [34] = experiment: Effect on non-proliferating tissue in iv dosed Lewis rat assessed as toxic lesions in kidney on day 7; assay type: ADME, organism-based; settings: in vivo
Mus musculus [35] = experiment: Subacute toxicity in CD1 mouse assessed as WBC counts at 80 mg/kg, ip after 30 days; assay type: organism-based; parameters: dose 80 mg/kg, route intraperitoneal; settings: in vivo, 720 h
Mus musculus [36] = experiment: Acute toxicity in CD1 mouse assessed as absolute lymphocyte counts at 10 mg/kg, ip after 7 days; assay type: organism-based; parameters: dose 10 mg/kg, route intraperitoneal; settings: in vivo, 168 h
Mus musculus [37] = experiment: Subacute toxicity in CD1 mouse assessed as absolute neutrophil counts at 40 mg/kg, ip after 30 days; assay type: organism-based; parameters: dose 40 mg/kg, route intraperitoneal; settings: in vivo, 720 h
PTK1 [38] = experiment: Antiproliferative activity against prometaphase PTK1 cells assessed as complete arrest at 1 mM within 50 mins; assay type: functional, cell-based; settings: Potorous tridactylus
Rattus norvegicus [39] = experiment: Effect on non-proliferating tissue in iv dosed Lewis rat assessed as toxic lesions in brain on day 7; assay type: ADME, organism-based; settings: in vivo
Rattus norvegicus [40] = experiment: Toxicity in Lewis rat assessed as WBC counts at 20 mg/kg, iv after 7 days; assay type: organism-based; parameters: dose 20 mg/kg, route intravenous; settings: in vivo, 168 h
[41] = target: T2, Serine/threonine-protein kinase PLK1; experiment: Inhibition of Xenopus recombinant Plx1 expressed in Sf21 cells by GST-Cdc25 substrate phosphorylation assay; assay type: functional
Mus musculus [42] = experiment: Acute toxicity in CD1 mouse assessed as absolute lymphocyte counts at 20 mg/kg, ip after 7 days; assay type: organism-based; parameters: dose 20 mg/kg, route intraperitoneal; settings: in vivo, 168 h
Rattus norvegicus [43] = experiment: Toxicity in Lewis rat assessed as absolute lymphocyte counts at 80 mg/kg, iv after 7 days; assay type: organism-based; parameters: dose 80 mg/kg, route intravenous; settings: in vivo, 168 h
Mus musculus [44] = experiment: Toxicity in daily po dosed BALB/c mouse; assay type: organism-based; settings: in vivo
[45] = target: T1, Serine/threonine-protein kinase PLK3; experiment: Inhibition of human PLK3 in presence of 25 uM ATP
Rattus norvegicus [46] = experiment: Toxicity in Lewis rat assessed as absolute neutrophil counts at 20 mg/kg, iv after 7 days; assay type: organism-based; parameters: dose 20 mg/kg, route intravenous; settings: in vivo, 168 h

## C/C(O)=C(\C#N)C(=O)Nc1cc(Br)ccc1Br
Mus musculus [1]
  Activity: 4.6 10^9/L
Mus musculus [2]
  Activity: Non-toxic
Mus musculus [3]
  LD10: > 80 mg/kg
Mus musculus [4]
  Activity: Dose-dependent effect
[5]
  IC50: > 500 µM
[6]
  IC50: > 500 µM
Mus musculus [7]
  Activity: Non-toxic
[8]
  IC50: > 500 µM
Mus musculus [9]
  Activity: 4.4 10^9/L
Danio rerio
  Activity: Active
Mus musculus [10]
  Activity: 6.4 10^9/L
Mus musculus [11]
  Activity: Non-toxic
Mus musculus [12]
  Activity: 7.6 10^9/L
Mus musculus [13]
  Activity: Non-toxic
Mus musculus [14]
  Activity: 6.2 10^9/L
Mus musculus [15]
  Activity: 6 10^9/L
Mus musculus [16]
  Activity: Non-toxic
Mus musculus [17]
  Activity: Non-toxic
Mus musculus [18]
  Activity: 1.7 10^9/L
[19]
  IC50: 61 µM
[20]
  IC50: 262 µM
[21]
  IC50: 10.3 µM
Mus musculus [22]
  Activity: 1.4 10^9/L
PTK1 [23]
  Activity: Active
[24]
  IC50: > 500 µM
Mus musculus [25]
  Activity: 5.2 10^9/L
[26]
  IC50: 215 µM
Mus musculus [27]
  Activity: 7 10^9/L
Mus musculus [28]
  Activity: Non-toxic
Rattus norvegicus [29]
  Activity: Non-toxic
Rattus norvegicus [30]
  Activity: 2.1 10^9/L
Mus musculus [31]
  Activity: 5.1 10^9/L
Rattus norvegicus [32]
  Activity: Non-toxic
Rattus norvegicus [33]
  Activity: Non-toxic
Rattus norvegicus [34]
  Activity: Non-toxic
Mus musculus [35]
  Activity: 6.1 10^9/L
Mus musculus [36]
  Activity: 5.4 10^9/L
Mus musculus [37]
  Activity: 1 10^9/L
PTK1 [38]
  Activity: Active
Rattus norvegicus [39]
  Activity: Non-toxic
Rattus norvegicus [40]
  Activity: 11.7 10^9/L
[41]
  IC50: 32.5 µM
Mus musculus [42]
  Activity: 5.8 10^9/L
Rattus norvegicus [43]
  Activity: 9.7 10^9/L
Mus musculus [44]
  LD10: > 200 mg/kg
[45]
  IC50: 61 µM
Rattus norvegicus [46]
  Activity: 1.6 10^9/L
